Consider 3 compounds from patent publication US6716849B1, “Substituted phenylcyclohexane carboxylic acid amides that have an adenosine uptake inhibiting effect” (Bayer Aktiengesellschaft, priority 2001, dated 2004).

Data set [1] in a line: Determination of the solubility (precipitation method, physiological saline, HPLC). The data set is classed as physicochemical. Particulars: saline or isotonic, kinetic from dmso stock, 25° C., 24 hours equilibration. The procedure:
1. Determination of the Solubility
To determine the solubility, a precipitation method was used:
10 mg of the test substance are completely dissolved in 50 μl of DMSO (stock solution). 20 μl of this solution are added to 2000 μl of physiological saline. This solution, in turn, is shaken at 25° C. in a Thermomixer Comfort (from Eppendorf) at 1400 rpm for 24 hours for equilibration.
The precipitated fractions of the test substance are centrifuged off using a Biofuge 15 from Heraeus at 14,000 rpm for 5 min. 1300 μl of the supernatant are once more centrifuged using a Microfuge from Beckmann at 45,000 rpm=125,000 g.
10 μl of this centrifigation supernatant are then diluted with 1000 μl of DMSO, and this solution is measured by HPLC (Hewlett Packard 1090, method, gradient from 100% PBS buffer pH=4 to 10% buffer/90% acetonitrile over a period of 15 min, column: RPI8; PBS buffer pH=4 is a physiological saline solution adjusted to pH=4 using phosphate buffer).
Using a calibration curve, the measured peak area of the HPLC measurement is converted into substance concentration. For the calibration curve, 20 μl of the stock solution are diluted successively with DMSO such that 5 concentrations of 2.5 mg/l to 2000 mg/l result. These solutions are likewise measured by HPLC (see method above), and the peak areas are plotted as a function of the concentrations.

For data set [2], the target named is T1, adenosine transport protein from calf cortex (Bos taurus, UniProt A0ACM8Q8F7).
T1 construct: a membrane preparation of cerebral calf cortex is used, which expresses the relevant adenosine transporter; from tissue; host or cells: cerebral calf cortex, membrane preparation
T1 sequence (A0ACM8Q8F7 1-456): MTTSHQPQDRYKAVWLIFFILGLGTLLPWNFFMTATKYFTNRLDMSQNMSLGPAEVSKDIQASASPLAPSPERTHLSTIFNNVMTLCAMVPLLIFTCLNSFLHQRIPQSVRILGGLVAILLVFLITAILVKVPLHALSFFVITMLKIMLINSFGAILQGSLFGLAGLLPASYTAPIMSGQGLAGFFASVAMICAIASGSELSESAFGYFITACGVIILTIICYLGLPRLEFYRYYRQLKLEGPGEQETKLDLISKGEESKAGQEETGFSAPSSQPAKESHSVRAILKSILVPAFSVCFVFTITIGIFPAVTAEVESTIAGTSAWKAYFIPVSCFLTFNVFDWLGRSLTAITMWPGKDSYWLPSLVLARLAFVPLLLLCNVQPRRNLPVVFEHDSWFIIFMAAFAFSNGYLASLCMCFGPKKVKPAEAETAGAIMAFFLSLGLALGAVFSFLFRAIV
The data set is described as follows: Binding to an adenosine transport protein from calf cortex (displacement of radio-labelled NBTI). Particulars: membrane preparation of cerebral calf cortex, read-out: Ki, inhibition of NBTI-binding. An excerpt:
2. Binding of the Compounds According to the Invention to an Adenosine Transport Protein From Calf Cortex
The ability of substances to influence the adenosine uptake system is investigated firstly by determining the binding affinity of selected substances to an adenosine transport protein of the CNS and secondly by determining the inhibiting effect of the substances on functional adenosine uptake.
For the binding test, a membrane preparation of cerebral calf cortex is used, which expresses the relevant adenosine transporter. The binding affinity (Ki value) is determined by measuring the displacement of a specific radio-labelled ligand [nitrobenzylthioinosine (NBTI)] from the binding site in question by test substances. The binding site is the binding site on the transport protein which is relevant for the actual transport process. Thus, binding of test substances in this experiment results in a quantifiable release of bound radioactive NBTI which makes determination of the Ki value possible. (J. Neurochemistry 1982,39, 184-191).

The subject of data set [3] is transient occlusion of the middle cerebral artery (tMCA-O). Description: tMCA-O: transient occlusion of the middle cerebral artery, infarct volume. Type of data set: in vivo. Particulars: rat tMCA-O, 0.001 mg/(kg×h) i.v. infusion, begun at start of reperfusion, evaluated after 2 days. The procedure:
The neuroprotective activity of the compounds according to the invention was determined in the animal model of transient occlusion of the middle cerebral artery (tMCA-O) and the subdural haematoma (SDH). […] Under general anaesthesia (inhalation anaesthesia with isoflurane), the hairs in the lower anterior neck region are shaved off, in the dorsal position, the head is fixed, the skin is disinfected and the neck area is opened in the middle along the trachea. The right lateral neck muscles are severed bluntly and, together with the skin, pulled to the side (retractors) so that the common carotid artery is clearly visible. The common carotid artery is exposed towards the head up to the point where it branches into the internal carotid artery and the external carotid artery. Using surgical suture material, the common carotid artery (near the thorax) and the external carotid artery are tied off. Using a microclamp; the internal carotid artery is closed temporarily. […] After 2 days of post-operative survival, the volume of the cerebral infarct is determined with the aid of a computer-supported image analysis system using preproduced series of histological brain sections. The size of the infarct is evaluated differentially by cortex, striatum, hippocampus and other brain areas.

The subject of data set [4] is subdural haematoma (SDH). Description: Subdural haematoma in rats (SDH), infarct volume. Type of data set: in vivo. Particulars: rat SDH, 0.001 mg/(kg×h) i.v. infusion. The procedure: The neuroprotective activity of the compounds according to the invention was determined in the animal model of transient occlusion of the middle cerebral artery (tMCA-O) and the subdural haematoma (SDH). 5. Subdural Haematoma in Rats (SDH) This rodent model (rat) imitates pathophysiology and cerebral pathology of the blunt skull-brain trauma with subdural hemorrhage and development of a subdural haematoma in man. (Neurosurgery 190, 27,433-439). Under anaesthesia, the animals are unilaterally injected subdurally with their own blood. Under the haematoma, an infarct forms. The substance is administered according to different schedules and via different administration routes (i.v., i.p.). The size of the infarct is determined as described in the model of the transient focal ischaemia in rats (tMCA-O).

As usually defined, the solubility is the concentration that dissolves in the medium under given conditions. One may read the Ki as a measure of affinity in units of concentration, obtained from inhibition or displacement.

In brackets after ≈: the same amount, converted by molar mass.

Take `NC(=O)[C@@H](NC(=O)[C@@H]1CCCC[C@H]1c1ccc(Cn2c(CN3CCOCC3)nc3cccnc32)cc1)c1ccccc1` [Example 3]: the concentration in solution in data set [1] (solubility at 24 h) came to 176 µg/mL (≈ 311 µM). For the same compound, the Ki in data set [2] is 2 nM. For the same compound, the “reduction of the infarct volume in comparison to control animals” value (from here on “reduction of the infarct volume”) in data set [3] came out at 81%; in data set [4], 30%.
As to `Cl.NC(=O)[C@@H](NC(=O)[C@@H]1CCCC[C@H]1c1ccc(Cn2c(CN3CCOCC3)nc3ncccc32)cc1)c1ccccc1` [Example 4, (S)-N-{{(1R,2R)-{4-{2-[2-(Morpholin-4-yl-methyl)-1H-pyrido[2,3-d]imidazol-1-yl]methyl}-phenyl}-cyclohex-1-yl}carbonyl}-phenylglycinamide hydrochloride], in data set [4], the “reduction of the infarct volume” value was found to be 45%.
Turning to `CN1CCN(c2nc3ccccc3n2Cc2ccc([C@@H]3CCCC[C@H]3C(=O)N[C@H](C(N)=O)c3ccccc3)cc2)CC1` [Example 5, (S)-N-{{(1R,2R)-2-{4-{[2-(4-Methyl-piperazin-1-yl)benzimidazol-1-yl]methyl}-phenyl}-cyclohex-1-yl}carbonyl}-phenylglycinamide], the solubility at 24 h in data set [1] was 16 µg/mL (≈ 28.3 µM). For the same compound, in data set [2], the Ki stood at 2 nM. Moreover, the “reduction of the infarct volume” value in data set [3] turned out to be 91%.
